Experimental findings from patent US20240238424A1, “HETEROBIFUNCTIONAL COMPOUNDS AND METHODS OF TREATING DISEASE” (Halda Therapeutics OpCo, Inc., priority 2021, published 2024) are described below.

For orientation: DC50 means the midpoint of the concentration-degradation curve.

The structures appear in SMILES notation. A value given as a limit tells only on which side of the number the result lay.

In one assay the target is T1, GSPT1 (Homo sapiens, UniProt P15170+Q96SW2).
T1 construct: host or cells: HEK293 LgBiT cell line
T1 sequence (P15170 whole entry): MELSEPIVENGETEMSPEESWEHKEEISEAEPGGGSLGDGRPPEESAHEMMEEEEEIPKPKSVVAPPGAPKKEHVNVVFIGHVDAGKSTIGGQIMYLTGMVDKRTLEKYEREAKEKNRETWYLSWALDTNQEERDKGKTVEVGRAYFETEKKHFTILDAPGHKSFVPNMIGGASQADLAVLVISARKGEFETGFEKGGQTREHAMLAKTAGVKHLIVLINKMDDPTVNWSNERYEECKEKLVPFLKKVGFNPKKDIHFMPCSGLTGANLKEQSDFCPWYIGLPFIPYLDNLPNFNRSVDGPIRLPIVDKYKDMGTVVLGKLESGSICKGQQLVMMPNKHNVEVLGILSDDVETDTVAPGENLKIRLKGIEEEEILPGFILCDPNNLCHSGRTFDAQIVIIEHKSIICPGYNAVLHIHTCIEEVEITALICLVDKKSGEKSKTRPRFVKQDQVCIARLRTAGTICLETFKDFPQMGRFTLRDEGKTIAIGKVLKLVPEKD
T1 sequence (Q96SW2 whole entry): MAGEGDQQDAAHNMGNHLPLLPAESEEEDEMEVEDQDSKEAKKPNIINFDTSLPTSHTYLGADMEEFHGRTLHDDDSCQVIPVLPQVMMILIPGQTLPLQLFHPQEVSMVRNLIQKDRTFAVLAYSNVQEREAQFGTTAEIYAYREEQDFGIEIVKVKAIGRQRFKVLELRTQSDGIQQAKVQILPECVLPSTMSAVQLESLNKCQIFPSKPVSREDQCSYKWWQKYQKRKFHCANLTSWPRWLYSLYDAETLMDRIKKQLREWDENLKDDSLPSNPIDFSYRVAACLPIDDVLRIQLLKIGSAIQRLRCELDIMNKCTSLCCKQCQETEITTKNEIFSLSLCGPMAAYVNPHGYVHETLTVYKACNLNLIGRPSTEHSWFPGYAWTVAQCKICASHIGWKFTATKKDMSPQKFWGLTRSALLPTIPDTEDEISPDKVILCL
T1 sequence (Q16531 whole entry partner): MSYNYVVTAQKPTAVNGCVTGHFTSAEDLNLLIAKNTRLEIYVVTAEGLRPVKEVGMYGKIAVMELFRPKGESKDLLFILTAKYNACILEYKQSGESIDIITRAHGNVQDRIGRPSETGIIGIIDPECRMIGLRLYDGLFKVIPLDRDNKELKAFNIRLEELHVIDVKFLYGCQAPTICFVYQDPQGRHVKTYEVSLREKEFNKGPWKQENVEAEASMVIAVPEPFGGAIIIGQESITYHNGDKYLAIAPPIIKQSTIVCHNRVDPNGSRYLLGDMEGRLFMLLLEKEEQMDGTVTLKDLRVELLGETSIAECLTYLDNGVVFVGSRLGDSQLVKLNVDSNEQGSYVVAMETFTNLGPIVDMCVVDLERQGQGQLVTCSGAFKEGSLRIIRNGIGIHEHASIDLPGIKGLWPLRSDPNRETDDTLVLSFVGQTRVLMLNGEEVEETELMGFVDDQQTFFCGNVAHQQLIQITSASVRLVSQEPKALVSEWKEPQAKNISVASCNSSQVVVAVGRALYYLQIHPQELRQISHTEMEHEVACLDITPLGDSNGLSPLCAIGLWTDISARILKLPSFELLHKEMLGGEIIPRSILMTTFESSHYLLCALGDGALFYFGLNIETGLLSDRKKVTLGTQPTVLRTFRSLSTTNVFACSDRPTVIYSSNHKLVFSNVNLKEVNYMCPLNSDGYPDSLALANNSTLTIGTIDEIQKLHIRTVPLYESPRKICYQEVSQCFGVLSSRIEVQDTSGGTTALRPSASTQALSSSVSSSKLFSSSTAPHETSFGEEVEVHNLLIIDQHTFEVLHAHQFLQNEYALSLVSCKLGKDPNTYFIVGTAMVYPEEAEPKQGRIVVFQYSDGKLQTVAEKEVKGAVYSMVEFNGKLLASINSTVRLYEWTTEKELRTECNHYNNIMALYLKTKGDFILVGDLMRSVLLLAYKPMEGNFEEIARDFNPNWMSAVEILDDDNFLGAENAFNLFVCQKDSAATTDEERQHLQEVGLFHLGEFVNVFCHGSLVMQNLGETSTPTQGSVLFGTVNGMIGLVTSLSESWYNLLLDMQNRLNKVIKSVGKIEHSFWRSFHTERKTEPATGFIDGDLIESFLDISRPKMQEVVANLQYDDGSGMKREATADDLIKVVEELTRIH
Put plainly: GSPT1 HiBit degradation assay. The assay is classed as cell-based. Conditions: Table 3; HEK293 LgBiT cells expressing GSPT1_HiBiT, luminescence after 6 hours. The text has this:
Promega developed a HEK293 cell line that constitutively expresses LgBiT protein and GSPT1_HiBiT fusion protein. When both proteins are present, the HiBiT portion of the fusion protein combines with LgBiT protein to form a functional luciferase enzyme. Endurazine, a cell permeable small molecule, is converted by cellular esterases into furimazine, which the luciferase enzyme uses as a substrate to generate luminescence. When GSPT1 is degraded, the HiBit is also degraded. This prevents formation of fully functional luciferase, leading to a loss in luminescence. GSPT1 degradation therefore correlates with a decrease in luminescence and can be measured continuously over time. The concentration of compound at which 50% GSPT1 degradation occurs (DC50) was calculated using this system.
• HEK293 LgBiT Cell line (Promega Custom) • Endurazine Substrate (Promega Cat. #N2570) • DMEM (Gibco Cat. #11995) • Penicillin/Streptomycin (Gibco Cat. #15140-122) • Heat Inactivated Fetal Bovine Serum (Gibco Cat. #A38400-01) • Hygromycin B (Gibco Cat. #10-687-010) • 384 Well TC Treated White Microplate (Perkin Elmer Cat. #6007680)
HEK293 LgBiT cells were cultured in DMEM Media supplemented with 10% FBS, 5% Pen/Strep, 200 μg/ml hygromycin and stored in an incubator set at 37° C. and 5% CO2. 18-24 hours prior to compound treatment, HEK293 LgBiT cells were seeded at 1000 cells/well in a 384-well microplate in 25 μl complete media. The plate was spun at 300 g for 30 seconds and stored in the incubator overnight. The next day, compounds were titrated in DMSO and added to media supplemented with endurazine substrate. A 25 ul aliquot of 2× compound/endurazine in media were then added to the 384-well microplate with seeded cells. (Endurazine was used at a final concentration of 0.5×). The plate was spun at 300 g for 30 seconds and stored in the incubator. After 6 hours the plate was read on a Perkin Elmer MultiMode Plate Reader Envision 2105 to measure luminescence signal.
(The HiBiT peptide binds its large partner to form an active luciferase.)
`C=CC(=O)Nc1cc(Nc2nccc(-c3cn(C)c4ccccc34)n2)c(OC)cc1N(C)CCN(C)CCOCCOCCOCCOCCOCCOCCCCCCCCc1cc(Cl)cc(NC(=O)NCc2ccc3c(c2)CN(C2CCC(=O)NC2=O)C3=O)c1` (stereo not drawn) [Compound I-62] yielded a DC50 below 0.25 µM.

With `CC1(C)[C@H](NC(=O)c2ccc(OCCOCCOCCOCCOCCOCCOCCOCCOCCc3cc(Cl)cc(NC(=O)NCc4ccc5c(c4)CN(C4CCC(=O)NC4=O)C5=O)c3)cc2)C(C)(C)[C@H]1Oc1ccc(C#N)c(Cl)c1` (stereo partly drawn) [Compound I-28], the DC50 is 0.25 to 5 µM.

Still in this assay, the particulars now being: Table 3A; HEK293 LgBiT cells expressing GSPT1_HiBiT, luminescence after 6 hours.
For `Cc1c(NC(=O)c2ccc(C3CC3)cc2F)cc(F)cc1-c1ncnc(N)c1OCCN(C)C(=O)/C=C/CN(C)CCOCCOCCOCCOCCOCCOCCOCCCCCc1cc(Cl)cc(NC(=O)NCc2ccc3c(c2)CN(C2CCC(=O)NC2=O)C3=O)c1` (stereo not drawn) [Compound I-113], the DC50 was 0.25 to 5 µM. The same measure, in the same setting: the result for `CN(C/C=C/C(=O)N1CCC[C@@H](n2nc(-c3ccc(Oc4ccccc4)cc3)c3c(N)ncnc32)C1)CCOCCOCCOCCOCCOCCOCCOCCOCCOCCCCCc1cc(Cl)cc(NC(=O)NCc2ccc3c(c2)CN(C2CCC(=O)NC2=O)C3=O)c1` (stereo partly drawn) [Compound I-117] reads 5 to 10 µM; that for `Cc1c(CC(=O)N(C)C)ccc(NC(=O)c2nn([C@@H]3CCCN(C(=O)/C=C/CN(C)CCOCCOCCOCCOCCOCCOCCc4cc(Cl)cc(NC(=O)NCc5ccc6c(c5)CN(C5CCC(=O)NC5=O)C6=O)c4)C3)c3ncnc(N)c23)c1C` (stereo partly drawn) [Compound I-23, 4-amino-1-[(3R)-1-[(E)-4-[2-[2-[2-[2-[2-[2-[2-[3-chloro-5-[[2-(2,6-dioxo-3-piperidyl)-1-oxo-isoindolin-5-yl]methylcarbamoylamino]phenyl]ethoxy]ethoxy]ethoxy]ethoxy]ethoxy]ethoxy]ethyl-methyl-amino]but-2-enoyl]-3-piperidyl]-N-[4-[2-(dimethylamino)-2-oxo-ethyl]-2,3-dimethyl-phenyl]pyrazolo [3,4-d]pyrimidine-3-carboxamide], above 10 µM; that for `CN(C/C=C/C(=O)N1CCN(c2nc(OC[C@@H]3CCCN3C)nc3c2CCN(c2cccc4cccc(Cl)c24)C3)C[C@@H]1CC#N)CCOCCOCCOCCOCCOCCOCCOCCOCCOCCOCCOCCOCCCCCCCCc1cc(Cl)cc(NC(=O)NCc2ccc3c(c2)CN(C2CCC(=O)NC2=O)C3=O)c1` (stereo partly drawn) [Compound I-88], 0.25 to 5 µM.

As for `CN(C/C=C/C(=O)N1CCN(c2nc(OC[C@@H]3CCCN3C)nc3c2CCN(c2cccc4cccc(Cl)c24)C3)C[C@@H]1CC#N)CCOCCOCCOCCOCCOCCOCCOCCOCCOCCOCCCCCCCCc1cc(Cl)cc(NC(=O)NCc2ccc3c(c2)CN(C2CCC(=O)NC2=O)C3=O)c1` (stereo partly drawn) [Compound I-87], the DC50 lay in the range of 0.25 to 5 µM. On the same count and under the same terms, the result for `C=C(F)C(=O)N1CCN(c2nc(OC[C@@H]3CCCN3CCCOCCOCCOCCOCCOCCOCCOCCOCCCCCCCCc3cc(Cl)cc(NC(=O)NCc4ccc5c(c4)CN(C4CCC(=O)NC4=O)C5=O)c3)nc3c2CCN(c2cccc4cccc(Cl)c24)C3)C[C@@H]1CC#N` (stereo partly drawn) [Compound I-78] reads below 0.25 µM; that for `CCC(=O)N1CCN(c2nc(OC[C@@H]3CCCN3CCOCCOCCOCCOCCOCCOCCOCCOCCOCCOCCOCCOCCOCCOCCCCCCCCc3cc(Cl)cc(NC(=O)NCc4ccc5c(c4)CN(C4CCC(=O)NC4=O)C5=O)c3)nc3c2CCN(c2cccc4cccc(Cl)c24)C3)C[C@@H]1CC#N` (stereo partly drawn) [Compound I-106], 0.25 to 5 µM; that for `Cc1c(NC(=O)c2ccc(C3CC3)cc2F)cc(F)cc1-c1ncnc(N)c1OCCN(C)C(=O)/C=C/CN(C)CCOCCOCCOCCOCCOCCOCCOCCOCCOCCOCCOCCCCCc1cc(Cl)cc(NC(=O)NCc2ccc3c(c2)CN(C2CCC(=O)NC2=O)C3=O)c1` (stereo not drawn) [Compound I-143], 0.25 to 5 µM. Same read-out and setting: the result for `COc1cc(N2CCN(C(=O)COCCOCCOCCOCCOCCOCCOc3cc(Cl)cc(NC(=O)NCc4ccc5c(c4)CN(C4CCC(=O)NC4=O)C5=O)c3)CC2)ccc1Nc1ncc(Cl)c(Nc2ccccc2P(C)(C)=O)n1` (stereo not drawn) [Compound I-25] reads above 10 µM.

In turn, `Cc1c(NC(=O)c2ccc(C3CC3)cc2F)cc(F)cc1-c1ncnc(N)c1OCCN(C)C(=O)/C=C/CN(C)CCOCCOCCOCCOCCCCCCCCc1cc(Cl)cc(NC(=O)NCc2ccc3c(c2)CN(C2CCC(=O)NC2=O)C3=O)c1` (stereo not drawn) [Compound I-96] returned a DC50 below 0.25 µM.
